# In US20070265245A1, “S-Mirtazapine For The Treatment Of Hot Flush” (N.V. Organon, priority 2004, published 2007):
# Key:
# Assay type in all cases: in vivo
# [1] = tested on: ovariectomized rats; assay: Locomotor activity of ovariectomized rats, telemetry; settings: for locomotor activity (decrease to): from the first treatment onwards, vehicle around 1.2 cpm
# Experimental: (§1) The effect of the maleate salt of S-mirtazapine was measured in an animal model for hot flushes. The model is based on the observation that the drop in tail skin temperature at the transition from the rest to the active phase in rats is attenuated after ovariectomy. The locomotor activity of the rats was also measured.
# (§2) Tail skin temperature of the rats was measured by use of the telemetry system from Data Sciences International (DSI), a division of Transoma Medical, Inc., USA. This system comprises implantable wireless transmitters (TA10TA-F40 W/TP), receivers (RPC-1 and RLA1020), a data exchange matrix (DEM), and a data acquisition and analysis system (DQ ART 2.2 silver version).
# (§3) The S-mirtazapine maleate was dissolved in 0.9% saline with 5% mulgofen. Compound and vehicle were administered intraperitoneally. Sham placebo and ovariectomized(OVX)/placebo groups received 2 ml/kg/day saline and compound treated groups received 10, 30 or 100 mg/kg/day in a volume of 2 ml/kg/day. Here, the indicated amounts refer to the weight of the maleate salt of S-mirtazepine.
# (§4) Female rats from the Crl:WU strain, weighing 225-250 g at arrival, were supplied by CPB Harlan, The Netherlands. Rats were housed individually in Macrolon™ cages (38×22×15 cm) with a sawdust bedding and “Enviro Dry™” as cage enrichment. The day after arrival the rats were ovariectomized or sham operated and the transmitter was implanted intraperitoneally under isoflurane aneasthesia. After surgery the rats were placed in a temperature controlled room (21.5±1° C.) with an adapted light/dark cycle (lights off 9:30 h a.m., lights on 7:30 h p.m.). They were allowed to recover from surgery and to adapt to the light/dark cycle for at least 2 weeks. Food and water were given ad libitum.
# (§5) Treatment groups were randomized over the OVX groups. The rats were injected intraperitoneally with vehicle or S-mirtazapine maleate once a day at 11:00 a.m. for a period of 5 days. The tail skin temperature and the locomotor activity of the rats were measured every 5 minutes continuously, but the measurements between 12:00 and 02:00 pm (in which period the maximal effect of S-mirtazapine was observed) were used for calculations of the treatment effects. During this period the rats remained completely undisturbed. Before 9:30 am (the time the light turned off) the rats could be taken care of.
# (§6) Body weights of the rats were determined before and after the treatment period. Data were expressed as mean ±S.E.M. unless otherwise specified. For testing statistical significance the Analysis of Variance (ANOVA) was used. The data were logarithmically transformed to normalize variations. A value of P<0.05 was considered to be significant.
# Data were collected for each rat for 7 seconds every 5 minutes during two hours starting one hour after drug administration (11:00 a.m.). The mean tail skin temperature over this 2-h period was calculated for each rat. In addition, the group means were calculated together with the standard error of the mean (SEM). The tail skin temperature is expressed in degrees centigrade (°C.) and locomotor activity in counts per minutes (cpm).
# The number of animals in the different test groups varied between 5-8.
# [2] = tested on: ovariectomized rats; assay: Tail skin temperature in ovariectomized rats (animal model for hot flushes), telemetry; settings: for restoration of the attenuation of the OVX-induced drop in tail skin temperature: summary; for TST lower than the sham operated group: from day 2 onwards
# Experimental: as §1, §2, §3, §4
# The left and right flank and the rear end of the back above the tail implant of the rat were shaved. The rats were anaesthetized with isoflurane (FORENE®/1-chloro-2,2,2,-trifluorethyl-difluoromethyl-ether, Abbott). The operation area was disinfected with Hibicet® (1.5% m/v chloorhexidinedigluconaat and 1.5% m/v cetrimide). The rats were bilateral ovariectomized (OVX) or sham operated. The incision made in the right flank was also used to implant the transmitter in the peritoneal cavity. When closing the abdomen the transmitter was fixed to the abdominal muscles with stitches.
# On the back of the rat in height of the hips, a small incision in the skin was made and the thermistor-tipped probe was led to the back of the rat. From here the probe was brought under the skin in the tail to about 2 cm from the base of the tail. The lead was fixed with a stitch at the musculus biceps femoris. To complete the operation the skin was closed with wound clips. Immediately after surgery the rats were treated with the analgesic buprenorphine 50 μg/kg sc (Temgesic®, Schering-Plough).
# as §5, §6
# Data were collected for each rat for 7 seconds every 5 minutes during two hours starting one hour after drug administration (11:00 a.m.). The mean tail skin temperature over this 2-h period was calculated for each rat. […]
# [3] = Body weight of treated rats before and after treatment period; settings: experiment 1, 10 mg/kg i.p., 5 days
# Experimental: as §6
compound,measurement,setting,value
CN1CCN2c3ncccc3Cc3ccccc3[C@H]2C1.O=C(O)/C=C\C(=O)O [S-mirtazapine maleate],locomotor activity,"[1]; 30 mg/kg, summary, effect not statistically significant",reduced
same,locomotor activity compared to OVX placebo group,"[1]; experiment 1, 10 mg/kg i.p.",no significant effect
same,locomotor activity compared to sham operated placebo group,"[1]; experiment 1, 10 mg/kg/day i.p., day 3",significant reduction
same,effect on locomotor activity,"[1]; experiment 2, 10 mg/kg/day, rest of experiment at level of placebo treated OVX rats",only an effect on locomotor activity after the first treatment
same,locomotor activity at the end of the treatment period,"[1]; experiment 2, 30 mg/kg i.p.",about 0.5 cpm
same,drop in locomotor activity,"[1]; experiment 2, 30 mg/kg i.p., after 5 days treatment",50%
same,locomotor activity (decrease to),"[1]; experiment 2, 30 mg/kg i.p.",about 0.5 cpm
same,locomotor activity at the end of the treatment period,"[1]; experiment 2, 100 mg/kg i.p.",increased to the level of the vehicle treated rats
same,locomotor activity (decrease to),"[1]; experiment 2, 100 mg/kg i.p.",about 0.5 cpm
same,locomotor activity after 5 days treatment compared to the OVX placebo group,"[1]; experiment 2, any dose group (10, 30, 100 mg/kg)",No statistically significant effect
same,restoration of the attenuation of the OVX-induced drop in tail skin temperature,"[2]; 10 mg/kg i.p., OVX rats",not
same,restoration of the attenuation of the OVX-induced drop in tail skin temperature,"[2]; 30 mg/kg i.p., OVX rats",restored
same,effect against hot flush (conclusion),[2]; 30 mg/kg in rats,effect against hot flush
same,effect against hot flush (conclusion),[2]; 100 mg/kg in rats,effect against hot flush
same,increase in TST after the first treatment day,"[2]; experiment 1, 10 mg/kg/day i.p., OVX rats",approximately 2 °C
same,effect on tail skin temperature on day 5,"[2]; experiment 1, 10 mg/kg/day i.p., day 5",no effect
same,TST after the end of treatment,"[2]; experiment 1, 10 mg/kg/day i.p., all groups returned to normal values for OVX rats",about 29 °C
same,TST during the treatment period,"[2]; experiment 1, 10 mg/kg/day i.p., compared to sham/placebo and compared to OVX/placebo at day 4",significantly higher level
same,tail skin temperature compared to the OVX rats after 5 consecutive days,"[2]; experiment 2, 10 mg/kg",no effect
same,increase in TST after the first treatment,"[2]; experiment 2, 10 mg/kg/day i.p.",1-3 °C
same,TST during the treatment period compared to the OVX rats,"[2]; experiment 2, 10 mg/kg/day i.p., day 2 and 3",significantly higher level
same,TST after end of treatment,"[2]; experiment 2, 10 mg/kg/day i.p., returned to normal TST values of OVX rats",28-29 °C
same,TST after the end of treatment,"[2]; experiment 2, 30 mg/kg i.p.",returned to normal values of OVX rats
same,TST compared to the sham operated group after 5 consecutive days,"[2]; experiment 2, 30 mg/kg i.p.",statistically significantly below
same,restoration of the fall in TST,"[2]; experiment 2, 30 mg/kg i.p.",significantly restored
same,tail skin temperature compared to the OVX group after 5 consecutive days,"[2]; experiment 2, 30 mg/kg i.p.",significant decrease
same,TST versus sham operated placebo group on day 5,"[2]; experiment 2, 30 mg/kg i.p., day 5",statistically significantly different
same,TST lower than the sham operated group,"[2]; experiment 2, 30 mg/kg i.p.",2-4 °C
same,TST after the end of treatment,"[2]; experiment 2, 100 mg/kg i.p.",stayed up to 2 days after the end of treatment at a lower level
same,restoration of the fall in TST,"[2]; experiment 2, 100 mg/kg i.p.",significantly restored
same,tail skin temperature compared to the OVX group after 5 consecutive days,"[2]; experiment 2, 100 mg/kg i.p.",significant decrease
same,TST lower than the sham operated group,"[2]; experiment 2, 100 mg/kg i.p.",2-4 °C
same,effect on body weight (BW),[3],no significant effect
